Values quoted from earlier work, collected in PubChem BioAssay AID1259409 (Chemical Carcinogenesis Research Information System (CCRIS), 2018).

Tested on: rodent chemically induced tumor inhibition, incidence and multiplicity
Assay: CCRIS tumor inhibitor studies
Settings: for tumour outcome (control, treated, inhibition, significance): Promoter: NONE USED

In the case of `O=[Se](O)O`, the “tumour outcome (control, treated, inhibition, significance)” value (Carcinogen: N,N-DIETHYLNITROSAMINE, 55-18-5, Dose [Inhibitor]: 0.1 MG 5/WK STARTING 10-15 D BEFORE CARCINOGEN TREATMENT AND CONTINUING FOR DURATION OF STUDY (STUDY DURATION: 26 WK), Route [Inhibitor]: INTRAPERITONEAL, Species: RAT, Strain/Sex: BDIV AND WISTAR/MALE, Target Tissue: Type of Lesion: LIVER: TUMOR, Dose [Carcinogen]: 100 MG/L IN DRINKING WATER DAILY FOR 5 MO) is given as 18/19 (95%), 14/17 (82%), 14%, not calculated, the “tumour outcome (control, treated, inhibition, significance)” value (Carcinogen: N,N-DIETHYLNITROSAMINE, 55-18-5, Dose [Inhibitor]: 1 MG/L IN DRINKING WATER DAILY STARTING 10-15 D BEFORE CARCINOGEN TREATMENT AND CONTINUING FOR DURATION OF STUDY (STUDY, Route [Inhibitor]: ORAL, Species: RAT, Strain/Sex: BDIV AND WISTAR/MALE, Target Tissue: Type of Lesion: LIVER: TUMOR, Dose [Carcinogen]: 80 MG/KG BW IN 0.2 ML 0.9% SALINE 1/WK FOR 10 WK) is given as 17/20 (85%), 15/20 (75%), 12%, not calculated and the “tumour outcome (control, treated, inhibition, significance)” value (Carcinogen: N,N-DIETHYLNITROSAMINE, 55-18-5, Dose [Inhibitor]: 5 MG/L IN DRINKING WATER DAILY STARTING 10-15 D BEFORE CARCINOGEN TREATMENT AND CONTINUING FOR DURATION OF STUDY (STUDY, Route [Inhibitor]: ORAL, Species: RAT, Strain/Sex: BDIV AND WISTAR/MALE, Target Tissue: Type of Lesion: LIVER: TUMOR, Dose [Carcinogen]: 80 MG/KG BW IN 0.2 ML 0.9% SALINE 1/WK FOR 10 WK) is given as 15/16 (94%), 17/18 (94%), 0%, not calculated. For the same compound, the “tumour outcome (control, treated, inhibition, significance)” value (Carcinogen: N,N-DIETHYLNITROSAMINE, 55-18-5, Dose [Inhibitor]: 10 MG/L IN DRINKING WATER DAILY STARTING 10-15 D BEFORE CARCINOGEN TREATMENT AND CONTINUING FOR DURATION OF STUDY (STUDY, Route [Inhibitor]: ORAL, Species: RAT, Strain/Sex: BDIV AND WISTAR/MALE, Target Tissue: Type of Lesion: LIVER: TUMOR, Dose [Carcinogen]: 80 MG/KG BW IN 0.2 ML 0.9% SALINE 1/WK FOR 10 WK) was 15/16 (94%), 9/13 (69%), 27%, not calculated, the “tumour outcome (control, treated, inhibition, significance)” value (Carcinogen: N,N-DIETHYLNITROSAMINE, 55-18-5, Dose [Inhibitor]: 10 MG/L IN DRINKING WATER DAILY STARTING 10-15 D BEFORE CARCINOGEN TREATMENT AND CONTINUING FOR DURATION OF STUDY (STUDY, Route [Inhibitor]: ORAL, Species: RAT, Strain/Sex: BDIV AND WISTAR/MALE, Target Tissue: Type of Lesion: LIVER: TUMOR, Dose [Carcinogen]: 100 MG/L IN DRINKING WATER DAILY FOR 5 MO) was 18/19 (95%), 15/16 (94%), 1%, not calculated and the “tumour outcome (control, treated, inhibition, significance)” value (Carcinogen: N-METHYL-N'-NITRO-N-NITROSOGUANIDINE, 70-25-7, Dose [Inhibitor]: 10 MG/L IN DRINKING WATER DAILY STARTING 15 D BEFORE CARCINOGEN TREATMENT AND CONTINUING FOR DURATION OF STUDY (STUDY DU, Route [Inhibitor]: ORAL, Species: RAT, Strain/Sex: BDIV AND WISTAR/MALE, Target Tissue: Type of Lesion: STOMACH: TUMORS, Dose [Carcinogen]: 250 MG/KG BW PULSED DOSE IN 2 ML CORN OIL ONCE) was 18/25 (72%), 12/35 (75%), -4%, not calculated. For the same compound, the outcome (Carcinogen: N-METHYL-N-NITRO-N'-NITROSO-GUANIDINE [70-25-7], Dose [Inhibitor]: 0, 2, 4 MG/L FOR 1 WK PRIOR TO CARCINOGEN (STUDY DURATION: 43 WKS), Dose [Inhibitor]: 0, 2, 4 MG/L FOR 1 WK PRIOR TO CARCINOGEN (STUDY DURATION: 43 WKS), Route [Inhibitor]: DRINKING WATER, Species: RAT, Strain/Sex: WISTAR/MALE, Target Tissue: Type of Lesion: LEIOMYOMA, Dose [Carcinogen]: 20 MG/KG BW DAILY FOR 10 D) was 23%; 47%, -104%; 43%, -87%, the “tumour outcome (control, treated, inhibition, significance)” value (Carcinogen: N-METHYL-N-NITROSOUREA, 684-9-35, Dose [Inhibitor]: 4 PPM IN DRINKING WATER DAILY FOR 10 MO STARTING SIMULTANEOUSLY WITH CARCINOGEN TREATMENT (STUDY DURATION: 10 MO), Route [Inhibitor]: ORAL, Species: RAT, Strain/Sex: WE/MALE, Target Tissue: Type of Lesion: BRAIN AND SPINAL CORD: NEOPLASM, Dose [Carcinogen]: 20 MG/KG BW ONCE EVERY 4 WK FOR 40 WK) was 6/15 (40%), 9/16 (56%), -40%, not significant and the “tumour outcome (control, treated, inhibition, significance)” value (Carcinogen: N-METHYL-N-NITROSOUREA, 684-9-35, Dose [Inhibitor]: 4 PPM IN DRINKING WATER DAILY FOR 10 MO STARTING SIMULTANEOUSLY WITH CARCINOGEN TREATMENT (STUDY DURATION: 10 MO), Route [Inhibitor]: ORAL, Species: RAT, Strain/Sex: WE/MALE, Target Tissue: Type of Lesion: FORESTOMACH: NEOPLASM, Dose [Carcinogen]: 20 MG/KG BW ONCE EVERY 4 WK FOR 40 WK) was 14/15 (93%), 16/16 (100%), -8%, not significant. The “tumour outcome (control, treated, inhibition, significance)” value (Carcinogen: N-METHYL-N-NITROSOUREA, 684-9-35, Dose [Inhibitor]: 4 PPM IN DRINKING WATER DAILY FOR 10 MO STARTING SIMULTANEOUSLY WITH CARCINOGEN TREATMENT (STUDY DURATION: 10 MO), Route [Inhibitor]: ORAL, Species: RAT, Strain/Sex: WE/MALE, Target Tissue: Type of Lesion: MAMMARY GLAND: NEOPLASM, Dose [Carcinogen]: 20 MG/KG BW ONCE EVERY 4 WK FOR 40 WK) was 3/15 (20%), 4/16 (25%), -25%, not significant, the “tumour outcome (control, treated, inhibition, significance)” value (Carcinogen: N-METHYL-N-NITROSOUREA, 684-9-35, Dose [Inhibitor]: 4 PPM IN DRINKING WATER DAILY FOR 10 MO STARTING SIMULTANEOUSLY WITH CARCINOGEN TREATMENT (STUDY DURATION: 10 MO), Route [Inhibitor]: ORAL, Species: RAT, Strain/Sex: WE/MALE, Target Tissue: Type of Lesion: PERIPHERAL NERVES: NEOPLASM, Dose [Carcinogen]: 20 MG/KG BW ONCE EVERY 4 WK FOR 40 WK) was 3/15 (20%), 8/16 (50%), -150%, not significant and the “tumour outcome (control, treated, inhibition, significance)” value (Carcinogen: N-METHYL-N-NITROSOUREA, 684-93-5, Dose [Inhibitor]: 1 MG IN DIET DAILY STARTING AT AGE 5 WK 2 WK PRIOR TO FIRST CARCINOGEN TREATMENT AND CONTINUING FOR DURATION OF STUDY (S, Route [Inhibitor]: ORAL, Species: HAMSTER, Strain/Sex: SYRIAN/MALE, Target Tissue: Type of Lesion: TRACHEA: CARCINOMA, Dose [Carcinogen]: 0.5% SOLUTION (PH 5) 1/WK FOR 12 WK) was 9/34 (26%), 8/33 (24%), 8%, not significant. For the same compound, the “tumour outcome (control, treated, inhibition, significance)” value (Carcinogen: N-METHYL-N-NITROSOUREA, 684-93-5, Dose [Inhibitor]: 1 MG IN DIET DAILY STARTING AT AGE 5 WK 2 WK PRIOR TO FIRST CARCINOGEN TREATMENT AND CONTINUING FOR DURATION OF STUDY (S, Route [Inhibitor]: ORAL, Species: HAMSTER, Strain/Sex: SYRIAN/MALE, Target Tissue: Type of Lesion: TRACHEA: NEOPLASM, Dose [Carcinogen]: 0.5% SOLUTION (PH 5) 1/WK FOR 12 WK) was 11/34 (32%), 9/33 (27%), 16%, not significant, the “tumour outcome (control, treated, inhibition, significance)” value (Carcinogen: N-METHYL-N-NITROSOUREA, 684-93-5, Dose [Inhibitor]: 1 MG/KG IN DIET DAILY STARTING 7 D AFTER CARCINOGEN TREATMENT AND CONTINUING FORDURATION OF STUDY (STUDY DURATION: 120 D, Route [Inhibitor]: ORAL, Species: RAT, Strain/Sex: SPRAGUE-DAWLEY/FEMALE, Target Tissue: Type of Lesion: MAMMARY GLAND: ADENOCARCINOMA, Dose [Carcinogen]: 35 MG/KG BW IN 0.9% SALINE ONCE AT 50 D OF AGE) was 68%, 68%, 0%, not calculated and the “tumour outcome (control, treated, inhibition, significance)” value (Carcinogen: N-METHYL-N-NITROSOUREA, 684-93-5, Dose [Inhibitor]: 5 MG IN DIET DAILY STARTING AT AGE 5 WK 2 WK PRIOR TO FIRST CARCINOGEN TREATMENT AND CONTINUING FOR DURATION OF STUDY (S, Route [Inhibitor]: ORAL, Species: HAMSTER, Strain/Sex: SYRIAN/MALE, Target Tissue: Type of Lesion: TRACHEA: CARCINOMA, Dose [Carcinogen]: 0.5% SOLUTION (PH 5) 1/WK FOR 12 WK) was 9/34 (26%), 10/31 (32%), -23%, not significant.
